Paper PMC8121815 (Nature Communications, 2021)

Tests used:
hTOM70/N-peptide complex = hTOM70/N-peptide complex (Homo sapiens, UniProt O94826); assay type: binding
[1] = biological target: T1, unliganded hTOM70 (cytoplasmic segment of human TOM70) (human); assay: ITC
T1 sequence (O94826 whole entry, looked up): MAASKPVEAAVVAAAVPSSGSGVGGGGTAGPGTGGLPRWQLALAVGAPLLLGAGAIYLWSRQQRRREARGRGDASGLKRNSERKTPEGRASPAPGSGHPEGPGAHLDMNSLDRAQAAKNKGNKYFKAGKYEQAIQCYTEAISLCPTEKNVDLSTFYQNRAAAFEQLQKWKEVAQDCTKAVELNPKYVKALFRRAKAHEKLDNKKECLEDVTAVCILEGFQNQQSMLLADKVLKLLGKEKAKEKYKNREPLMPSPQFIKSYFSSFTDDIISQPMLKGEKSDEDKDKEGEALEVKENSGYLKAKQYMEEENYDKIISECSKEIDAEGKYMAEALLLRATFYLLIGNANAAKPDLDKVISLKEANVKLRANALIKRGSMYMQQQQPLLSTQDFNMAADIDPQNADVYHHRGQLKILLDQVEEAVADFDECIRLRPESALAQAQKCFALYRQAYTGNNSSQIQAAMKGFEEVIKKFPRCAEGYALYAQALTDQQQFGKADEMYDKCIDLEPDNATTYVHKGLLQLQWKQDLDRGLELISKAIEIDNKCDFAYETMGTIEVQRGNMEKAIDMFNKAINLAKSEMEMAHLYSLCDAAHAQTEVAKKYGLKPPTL

[2] = biological target: T2, SARS-CoV-2 orf9b with an N-terminal His-tag, co-expressed with hTOM70 (SARS-CoV-2, UniProt P0DTD2 1-97); assay: SEC + AUC; settings: both partners purified
T2 construct: also called intact orf9b
T2 sequence (P0DTD2 whole entry): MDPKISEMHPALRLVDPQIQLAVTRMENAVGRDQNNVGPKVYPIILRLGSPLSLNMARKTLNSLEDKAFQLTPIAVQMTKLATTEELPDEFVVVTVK

In the case of `CC[C@H](C)[C@H](N)C(=O)N[C@H](C(=O)N[C@@H](CC(C)C)C(=O)N[C@@H](CCCNC(=N)N)C(=O)N[C@@H](CC(C)C)C(=O)NCC(=O)N[C@@H](CO)C(=O)N1CCC[C@H]1C(=O)N[C@@H](CC(C)C)C(=O)N[C@@H](CO)C(=O)N[C@@H](CC(C)C)C(=O)N[C@@H](CC(N)=O)C(=O)N[C@@H](CCSC)C(=O)N[C@@H](C)C(=O)N[C@@H](CCCNC(=N)N)C(=O)N[C@@H](CCCCN)C(=O)N[C@H](C(=O)N[C@@H](CC(C)C)C(=O)N[C@@H](CC(N)=O)C(=O)N[C@@H](CO)C(=O)N[C@@H](CC(C)C)C(=O)N[C@@H](CCC(=O)O)C(=O)N[C@@H](CC(=O)O)C(=O)N[C@@H](CCCCN)C(=O)N[C@@H](C)C(=O)N[C@@H](Cc1ccccc1)C(=O)N[C@@H](CCC(N)=O)C(=O)O)[C@@H](C)O)[C@@H](C)CC` [C-peptide], the “ΔH, enthalpy variation” value (hTOM70/N-peptide complex) is reported as 0.981 ± 0.024 kcal/mol and the “ΔS, entropy variation” value (hTOM70/N-peptide complex) is reported as 32.5.

“C-peptide (SARS-CoV-2 orf9b core sequence 44-70) (from UniProt P0DTD2 44-70)” showed a dH [1] of 2.65 kcal/mol.

B1: hTOM70 ΔN2 (106-608), co-expressed with orf9b (domain or fragment, human, UniProt O94826 106-608, looked up)
chain: LDMNSLDRAQAAKNKGNKYFKAGKYEQAIQCYTEAISLCPTEKNVDLSTFYQNRAAAFEQLQKWKEVAQDCTKAVELNPKYVKALFRRAKAHEKLDNKKECLEDVTAVCILEGFQNQQSMLLADKVLKLLGKEKAKEKYKNREPLMPSPQFIKSYFSSFTDDIISQPMLKGEKSDEDKDKEGEALEVKENSGYLKAKQYMEEENYDKIISECSKEIDAEGKYMAEALLLRATFYLLIGNANAAKPDLDKVISLKEANVKLRANALIKRGSMYMQQQQPLLSTQDFNMAADIDPQNADVYHHRGQLKILLDQVEEAVADFDECIRLRPESALAQAQKCFALYRQAYTGNNSSQIQAAMKGFEEVIKKFPRCAEGYALYAQALTDQQQFGKADEMYDKCIDLEPDNATTYVHKGLLQLQWKQDLDRGLELISKAIEIDNKCDFAYETMGTIEVQRGNMEKAIDMFNKAINLAKSEMEMAHLYSLCDAAHAQTEVAKKYGLKPPTL
notes: also called TOM70 (106-608); cytosolic domain of hTOM70
In the case of B1, the “stoichiometry N” value [2] is reported as 1.
